Results as given in the NIST ThermoML archive (doi:10.1021/je700152c).

Assay: molar heat capacity at saturation pressure

CCCCn1cc[n+](C)c1.Cc1ccc(S(=O)(=O)[O-])cc1 [1-butyl-3-methylimidazolium tosylate]
molar heat capacity [J/K/mol]
Conditions | Crystal 1 | Metastable crystal
205.31 K | – | 319.1
205.46 K | 296.26 | –
207.12 K | 298.09 | –
207.15 K | 298.12 | –
207.23 K | – | 320.66
207.42 K | 298.43 | –
209.08 K | 300.36 | –
209.12 K | 300.45 | –
209.16 K | – | 322.21
209.38 K | 300.6 | –
211.04 K | 302.62 | –
211.08 K | – | 323.45
211.09 K | 302.68 | –
211.34 K | 302.99 | –
213 K | 304.79 | 325
213.05 K | 304.92 | –
213.31 K | 305.26 | –
214.92 K | – | 326.24
214.96 K | 307.15 | –
215.01 K | 307.18 | –
215.27 K | 307.65 | –
216.84 K | – | 328.11
216.91 K | 309.57 | –
216.97 K | 309.61 | –
217.22 K | 309.92 | –
218.76 K | – | 329.66
218.87 K | 311.96 | –
218.93 K | 311.96 | –
219.18 K | 312.59 | –
220.68 K | – | 331.83
220.82 K | 314.45 | –
220.88 K | 314.45 | –
221.13 K | 314.76 | –
222.6 K | – | 333.69
222.77 K | 317.86 | –
222.83 K | 317.24 | –
223.07 K | 317.55 | –
224.51 K | – | 336.8
224.72 K | 321.28 | –
224.77 K | 321.9 | –
225.01 K | 321.59 | –
226.41 K | – | 340.21
226.65 K | 326.86 | –
226.7 K | 326.55 | –
226.94 K | 328.11 | –
228.3 K | – | 347.04
228.56 K | 332.14 | –
228.61 K | 331.83 | –
228.85 K | 333.69 | –
230.18 K | – | 352.94
230.47 K | 336.18 | –
230.52 K | 335.56 | –
230.75 K | 336.8 | –
232.06 K | – | 355.11
232.37 K | 339.9 | –
232.43 K | 338.97 | –
232.65 K | 340.21 | –
233.94 K | – | 356.97
234.27 K | 341.76 | –
234.33 K | 341.76 | –
234.55 K | 342.7 | –
235.82 K | – | 358.22
236.17 K | 343.94 | –
236.24 K | 343.01 | –
236.45 K | 344.25 | –
237.7 K | – | 359.46
238.07 K | 346.11 | –
238.14 K | 345.18 | –
238.35 K | 346.42 | –
239.58 K | – | 361.01
239.97 K | 348.28 | –
240.04 K | 347.35 | –
240.25 K | 348.9 | –
241.45 K | – | 362.87
241.87 K | 350.46 | –
241.94 K | 349.52 | –
242.14 K | 350.77 | –
243.33 K | – | 364.42
243.76 K | 352.32 | –
243.83 K | 351.7 | –
244.04 K | 352.94 | –
245.21 K | – | 365.98
245.66 K | 354.49 | –
245.73 K | 353.87 | –
245.93 K | 355.11 | –
247.08 K | – | 367.84
247.55 K | 356.97 | –
247.62 K | 356.04 | –
247.82 K | 357.29 | –
248.96 K | – | 369.39
249.44 K | 359.15 | –
249.51 K | 358.53 | –
249.71 K | 359.46 | –
250.83 K | – | 371.25
251.33 K | 361.32 | –
251.4 K | 360.39 | –
251.59 K | 361.63 | –
252.7 K | – | 372.81
253.22 K | 363.49 | –
253.29 K | 362.87 | –
253.47 K | 363.8 | –
254.58 K | – | 374.67
255.11 K | 365.67 | –
255.17 K | 364.74 | –
255.35 K | 365.98 | –
256.45 K | – | 376.53
256.99 K | 367.84 | –
257.06 K | 367.22 | –
257.23 K | 368.15 | –
258.32 K | – | 378.39
258.88 K | 370.01 | –
258.94 K | 369.08 | –
259.11 K | 370.32 | –
260.2 K | – | 380.26
260.77 K | 372.19 | –
260.82 K | 371.56 | –
261 K | 372.5 | –
262.07 K | – | 381.81
262.65 K | 374.36 | –
262.71 K | 373.43 | –
262.87 K | 374.67 | –
263.94 K | – | 383.36
264.53 K | 376.22 | –
264.59 K | 375.6 | –
264.75 K | 376.53 | –
265.82 K | – | 385.53
266.42 K | 378.39 | –
266.47 K | 377.46 | –
266.63 K | 378.39 | –
267.69 K | – | 387.4
268.31 K | 380.57 | –
268.36 K | 379.63 | –
268.52 K | 380.88 | –
269.56 K | – | 388.95
270.19 K | 382.43 | –
270.25 K | 381.81 | –
270.4 K | 382.74 | –
271.43 K | – | 391.12
272.08 K | 384.6 | –
272.14 K | 383.36 | –
272.29 K | 384.6 | –
273.3 K | – | 393.6
273.97 K | 386.46 | –
274.03 K | 385.53 | –
274.19 K | 386.46 | –
275.16 K | – | 396.09
275.87 K | 388.64 | –
275.92 K | 388.02 | –
276.08 K | 388.33 | –
277.01 K | – | 399.5
277.76 K | 391.12 | –
277.8 K | 390.5 | –
277.97 K | 390.81 | –
278.86 K | – | 403.54
279.64 K | 393.6 | –
279.67 K | 393.29 | –
279.85 K | 393.6 | –
280.7 K | – | 407.57
281.51 K | 396.71 | –
281.53 K | 397.02 | –
281.71 K | 397.02 | –
282.53 K | – | 410.68
